From US20230355617A1, “SMALL MOLECULE INHIBITORS OF LEMUR TYROSINE KINASE 3” (The University of Sussex, priority 2020, published 2023)
Like-named read-outs stand apart in the source and are kept apart here. Where a SMILES comes first, the peptide text is derived from it. The star is where a group is joined. Cbz = O=C(OCc1ccccc1)*

Key:
FDCP1-parental = test: FDCP1 cell-based model, parental cells; design: species or system murine
LMTK3 [1] = target: T1, LMTK3 (Homo sapiens, UniProt Q96Q04); test: 32P γ-ATP in vitro kinase assay, phosphorylation of HSP27 by LMTK3; assay type: biochemical; conditions: in vitro kinase assay; read-out: Approximate IC50
T1 construct: The wt kinase domain of LMTK3 (aa 134 to aa 444) was cloned into pOPINEneo; made in house; host or cells: Spodoptera frugiperda Sf9 (baculovirus)
T1 sequence (Q96Q04 105-415): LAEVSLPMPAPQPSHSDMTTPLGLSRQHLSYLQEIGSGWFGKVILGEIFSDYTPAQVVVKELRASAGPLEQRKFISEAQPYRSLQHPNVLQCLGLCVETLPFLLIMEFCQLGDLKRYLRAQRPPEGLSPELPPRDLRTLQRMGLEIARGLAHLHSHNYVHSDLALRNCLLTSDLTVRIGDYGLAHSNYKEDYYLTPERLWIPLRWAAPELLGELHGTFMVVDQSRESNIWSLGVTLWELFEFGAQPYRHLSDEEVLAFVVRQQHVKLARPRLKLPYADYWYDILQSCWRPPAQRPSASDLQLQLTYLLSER

LMTK3 [2] = target: T2, LMTK3 (Homo sapiens, UniProt Q96Q04); test: Western blotting of LMTK3 protein in BC cell lines; assay type: cell-based
T2 construct: endogenous in cells; host or cells: MCF7, T47D, MDA-MB-231
T2 sequence (Q96Q04 21-1460): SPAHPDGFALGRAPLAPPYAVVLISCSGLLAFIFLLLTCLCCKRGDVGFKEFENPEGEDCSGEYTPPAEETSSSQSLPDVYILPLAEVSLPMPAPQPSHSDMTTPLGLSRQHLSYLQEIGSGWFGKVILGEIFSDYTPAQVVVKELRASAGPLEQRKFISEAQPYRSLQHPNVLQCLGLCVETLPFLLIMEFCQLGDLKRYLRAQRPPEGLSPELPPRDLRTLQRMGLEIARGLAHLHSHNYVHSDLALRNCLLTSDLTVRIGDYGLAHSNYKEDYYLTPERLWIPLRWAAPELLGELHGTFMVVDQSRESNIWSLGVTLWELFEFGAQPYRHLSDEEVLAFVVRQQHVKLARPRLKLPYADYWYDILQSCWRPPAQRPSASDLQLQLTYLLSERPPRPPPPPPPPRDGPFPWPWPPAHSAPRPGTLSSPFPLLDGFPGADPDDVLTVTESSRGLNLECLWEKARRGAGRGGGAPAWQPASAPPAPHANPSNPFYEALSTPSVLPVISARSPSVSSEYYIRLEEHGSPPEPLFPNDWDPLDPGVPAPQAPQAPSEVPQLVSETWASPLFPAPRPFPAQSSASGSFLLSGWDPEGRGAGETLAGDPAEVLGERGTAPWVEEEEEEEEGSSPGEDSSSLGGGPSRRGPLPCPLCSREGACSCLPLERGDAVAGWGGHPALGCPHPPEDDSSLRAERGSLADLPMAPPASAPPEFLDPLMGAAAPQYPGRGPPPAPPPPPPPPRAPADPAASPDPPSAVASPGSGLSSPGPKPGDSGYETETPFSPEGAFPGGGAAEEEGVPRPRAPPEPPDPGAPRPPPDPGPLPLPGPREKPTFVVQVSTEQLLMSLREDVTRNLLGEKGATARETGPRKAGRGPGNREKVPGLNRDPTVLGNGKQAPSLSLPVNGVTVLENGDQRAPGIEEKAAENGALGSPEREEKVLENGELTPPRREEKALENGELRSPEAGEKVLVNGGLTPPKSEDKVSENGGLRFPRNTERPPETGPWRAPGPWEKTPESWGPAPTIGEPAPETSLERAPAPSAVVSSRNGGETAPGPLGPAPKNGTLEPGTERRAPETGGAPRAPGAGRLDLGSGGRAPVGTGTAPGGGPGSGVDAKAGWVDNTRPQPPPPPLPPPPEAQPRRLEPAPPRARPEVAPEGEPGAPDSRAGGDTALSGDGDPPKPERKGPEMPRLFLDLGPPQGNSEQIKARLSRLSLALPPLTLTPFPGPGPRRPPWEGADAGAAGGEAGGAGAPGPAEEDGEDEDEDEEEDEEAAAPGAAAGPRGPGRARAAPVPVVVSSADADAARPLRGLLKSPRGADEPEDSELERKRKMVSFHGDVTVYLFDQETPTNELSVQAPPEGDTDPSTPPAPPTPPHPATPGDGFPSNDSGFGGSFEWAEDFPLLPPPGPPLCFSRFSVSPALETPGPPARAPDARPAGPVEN

ERα = test: Western blotting of ERα protein in BC cell lines; assay type: cell-based, human; conditions: MCF7, T47D, MDA-MB-231
[3] = Pharmacokinetics after single IV, IP or PO dose; assay type: in vivo, mice

**Q.** For `Cc1ccc(-c2ccc3ncc(-c4cccc(OC(F)(F)F)c4)n3n2)cc1`, which IC50 (FDCP1-parental; Mus musculus, FDC-P1; read-out: FDCP1-parental IC50) is on record?
**A.** > 10 µM

**Q.** For `FC(F)(F)Oc1cccc(-c2cnc3ccc(-c4ccccn4)nn23)c1` [Compound 337-1], which IC50 (LMTK3 [1]) is on record?
**A.** 0.4 µM

**Q.** For `FC(F)(F)Oc1cccc(-c2cnc3ccc(Cl)nn23)c1`, which IC50 (FDCP1-parental; Mus musculus, FDC-P1, read-out: FDCP1-parental IC50) is on record?
**A.** > 10 µM

**Q.** For `CC(C)C[C@@H](C=O)NC(=O)[C@H](CC(C)C)NC(=O)[C@H](CC(C)C)NC(=O)OCc1ccccc1` [MG132, reference compound] (Cbz-Leu-Leu-Leu-aldehyde), which “effect on C28-induced downregulation of LMTK3” value (LMTK3 [2]; 10 μM MG132 4 h, then 10 μM C28 24 h) is on record?
**A.** able to prevent C28-induced downregulation of LMTK3

**Q.** For `FC(F)(F)Oc1cccc(-c2cnc3ccc(-c4ccncc4)nn23)c1` [Compound C28, 6-(Pyridin-4-yl)-3-(3-(trifluoromethoxy)phenyl)imidazo[1,2-b]pyridazine], which “inhibition of LMTK3 protein levels in cancer cell lines” value (LMTK3 [2]; MCF7, T47D, MDA-MB-231) is on record?
**A.** best inhibitor

**Q.** And the LMTK3 protein levels (LMTK3 [2]; MCF7, T47D, MDA-MB-231, increasing concentrations, different time points)?
**A.** time and dose-dependent degradation of LMTK3

**Q.** And the LMTK3 ubiquitination (LMTK3 [2]; MCF7, 10 μM, 24 h)?
**A.** increased LMTK3 ubiquitination

**Q.** What about the ERα protein levels (ERα) of the same compound?
**A.** decreased protein levels of ERα

**Q.** What about the Cmax ([3]; IP 10 mg/kg) of the same compound?
**A.** 839 ng/mL

**Q.** And the T1/2 ([3]; IP 10 mg/kg)?
**A.** ~59 min

**Q.** What about the Cmax ([3]; IV 1 mg/kg) of the same compound?
**A.** 185 ng/mL

**Q.** What about the T1/2 ([3]; IV 5 mg/kg) of the same compound?
**A.** ~10 min

**Q.** What about the “lethality of IV dose” value ([3]; IV 5 mg/kg) of the same compound?
**A.** lethal for some mice

**Q.** What about the Cmax ([3]; IV 5 mg/kg, plasma) of the same compound?
**A.** 1533 ng/mL

**Q.** And the “time of peak concentration” value ([3]; IV 5 mg/kg, plasma)?
**A.** 5 min

**Q.** What about the Cmax ([3]; PO) of the same compound?
**A.** 632 ng/mL

**Q.** What about the T1/2 ([3]; PO) of the same compound?
**A.** ~62 min

**Q.** And the “peroral bioavailability (F)” value ([3]; based on incomplete data from 5 mg/kg IV group)?
**A.** 54%
